From article PMC8619920, “New Polyesterified Ursane Derivatives from Leaves of Maesa membranacea and Their Cytotoxic Activity” (Molecules, 2021)

Legend:
[1] = Cytotoxicity, LDH assay, PNT-2 cells; assay type: cell-based, human; conditions: human, 24 h, mean ± SD of three, read-out: Cell viability PNT-2
Experimental: (§1) Cytotoxic activity was tested on human cancer and normal cells, grouped in three panels, namely: prostate, skin and gastrointestinal. The prostate panel consisted of prostate cancer cell lines Du145 (ATCC HTB-81) and PC3 (ATCC CRL-1435), and prostate epithelial cells PNT-2 (ECACC 95012613). Melanoma cell lines A375 (ATCC CRL-1619) and HTB140 (ATCC Hs 294T) together with skin keratinocytes HaCaT (obtained as a kind gift of prof. Marta Michalik, Department of Cell Biology, Jagiellonian University, Kraków, Poland) were included into the skin panel. The gastrointestinal panel of cells comprised colon cancer cell lines Caco-2 (ATCC HTB-37) and HT29 (ATCC HTB-38). Du145 cells were grown in Modified Eagle’s Medium with low (1.0 g/L) glucose concentration, HT29, PC3 and PNT-2 cells in Dulbecco’s Modified Eagle’s Media: F12 HAM Nutrient Mixture, Caco-2 in Modified Eagle’s Medium with NEAA (no-essential amino acids) while melanoma cells and keratinocytes were maintained in Modified Eagle’s Medium with high (4.5 g/L) glucose concentration. The culture media (all supplied by Sigma-Aldrich Co.; St. Louis, MO, USA) contained antibiotics and 10% fetal bovine serum (FBS). All cultures were maintained at 37 °C, in a humidified, 5% CO2 containing, atmosphere.
(§2) The examined triterpenes were diluted in the culture media from freshly made stock solutions in MeOH (10 mg/mL) to the working concentrations (from 0 to 100 μg/mL).
(§3) Cell viability was determined as it was described previously. Cells suspended in the nutrient medium were transferred into 96-well microtiter plates (density 1.5 × 10^4 per well), and preincubated for 24 h (37 °C, 5% CO2). Then, the culture medium was replaced with the medium containing different concentrations of 1 or 2 (1–100 μg/mL). After 24 h of incubation, viability of the cells was determined using colorimetric lactate dehydrogenase (LDH) assay, in comparison to the controls to which corresponding aliquots of MeOH diluted with culture media were added. Cells grown in the medium without the tested compounds were used as control I (negative) and the positive control (control II) was obtained by incubation of the cells in the medium containing 1% Triton X-100. LDH released from the damaged cells into the cell culture medium was quantified by measuring the absorbance at 490 nm using Synergy II Biotek (BioTek Instruments, Winooski, VT, USA) microplate reader. Cytotoxicities of the examined compounds were calculated as follows: [(absorbance of the tested sample − absorbance of control I)/(absorbance of control II − absorbance of control I)] × 100. Results were means of three independent measurements (± SD). Doxorubicin (Ebewe Pharma GmbH., Unterach, Austria) was used as a reference cytostatic drug. The IC50 values were determined by plotting the percentage viability of the cells versus concentration and the adequate calculations made using AAT Bioquest website program (https://www.aatbio.com/tools/ic50-calculator, accessed on 29 October 2021).

[2] = system: PNT-2 human normal prostate epithelium cells; assay: Cytotoxicity, LDH assay, PNT-2 cells; assay type: cell-based; conditions: Homo sapiens, PNT2; 24 h treatment, 5–100 μg/mL
Experimental: as §1, §2, §3

[3] = Cytotoxicity, LDH assay, PC3 cells; assay type: cell-based, human; conditions: human, PC3 prostate adenocarcinoma cells, 24 h, mean ± SD of three, read-out: Cell viability PC3
Experimental: as §1, §2, §3

[4] = system: PC3 human prostate adenocarcinoma cells; assay: Cytotoxicity, LDH assay, PC3 cells; assay type: cell-based
Experimental: as §1, §2, §3

[5] = system: HaCaT human immortalized keratinocytes; assay: Cytotoxicity, LDH assay, HaCaT cells; assay type: cell-based; conditions: Homo sapiens, HaCaT; 24 h treatment, 5–100 μg/mL
Experimental: as §1, §2, §3

[6] = Cytotoxicity, LDH assay, A375 cells; assay type: cell-based, human; conditions: human, A375 malignant melanoma cells, 24 h, mean ± SD of three, read-out: Cell viability A375
Experimental: as §1, §2, §3

[7] = system: A375 human malignant melanoma cells; assay: Cytotoxicity, LDH assay, A375 cells; assay type: cell-based; conditions: Homo sapiens, A-375; 24 h treatment, 5–100 μg/mL
Experimental: as §1, §2, §3

[8] = Cytotoxicity, LDH assay, HTB140 cells; assay type: cell-based, human; conditions: human, HTB140 melanoma cells, 24 h, mean ± SD of three, read-out: Cell viability HTB140
Experimental: as §1, §2, §3

[9] = system: HTB140 human melanoma cells; assay: Cytotoxicity, LDH assay, HTB140 cells; assay type: cell-based; conditions: Homo sapiens; 24 h treatment, 5–100 μg/mL
Experimental: as §1, §2, §3

[10] = Cytotoxicity, LDH assay, HT29 cells; assay type: cell-based, human; conditions: human, HT29 colon adenocarcinoma cells, 24 h, mean ± SD of three, read-out: Cell viability HT29
Experimental: as §1, §2, §3

[11] = system: HT29 human colon adenocarcinoma cells; assay: Cytotoxicity, LDH assay, HT29 cells; assay type: cell-based; conditions: Homo sapiens, HT-29; 24 h treatment, 5–100 μg/mL
Experimental: as §1, §2, §3

[12] = Cytotoxicity, LDH assay, Caco-2 cells; assay type: cell-based, human; conditions: human, Caco-2, 24 h, mean ± SD of three, read-out: Cell viability Caco-2
Experimental: as §1, §2, §3

[13] = system: Caco-2 human colon adenocarcinoma cells; assay: Cytotoxicity, LDH assay, Caco-2 cells; assay type: cell-based; conditions: Homo sapiens, Caco-2, 24 h, 24 h treatment, 5–100 μg/mL
Experimental: as §1, §2, §3

`CC(=O)OC1CC2(C)C(C(OC(C)=O)CC3(C)C2C(O)C=C2C4C(C)C(C)(O)CC(OC(C)=O)C4(C)CCC23C)C(C)(C)C1O` (stereo not drawn) [Compound 2, 2α,6β,22α-triacetoxy-urs-12-ene-3α,11α,20β-triol] gave a viability at 24 h, 100 μg/mL ([1]; PNT-2 normal prostate epithelium cells, 100 μg/mL) of 93.56 ± 0.5%, a viability at 24 h, 5 μg/mL ([1]; PNT-2 prostate epithelial cells, 5 μg/mL) of 97.49 ± 0.79% and a viability at 24 h, 20 μg/mL ([1]; PNT-2 prostate epithelial cells, 20 μg/mL) of 96.3 ± 1.04%. It also gave a viability at 24 h, 30 μg/mL ([1]; PNT-2 prostate epithelial cells, 30 μg/mL) of 95.64 ± 0.65%, a viability at 24 h, 40 μg/mL ([1]; PNT-2 prostate epithelial cells, 40 μg/mL) of 95.37 ± 0.75% and a viability at 24 h, 50 μg/mL ([1]; PNT-2 prostate epithelial cells, 50 μg/mL) of 94.56 ± 0.32%. The IC50 [2] was greater than 100 µg/mL, the viability at 24 h, 5 μg/mL ([3]; 5 μg/mL) was 96.6 ± 1.35% and the viability at 24 h, 10 μg/mL ([3]; 10 μg/mL) was 94.1 ± 1.24%. It also gave a viability at 24 h, 20 μg/mL ([3]; 20 μg/mL) of 87.9 ± 1.54%, a viability at 24 h, 30 μg/mL ([3]; 30 μg/mL) of 79 ± 1.1% and a viability at 24 h, 40 μg/mL ([3]; 40 μg/mL) of 70.3 ± 1.6%. The viability at 24 h, 50 μg/mL ([3]; 50 μg/mL) was 59 ± 1.81%, the viability at 24 h, 100 μg/mL ([3]; 100 μg/mL) was 47.1 ± 2.64% and the “Cell viability PC3” value ([4]; 100 μg/mL, 24 h, mean ± SD of three) was greater than 47%. It also gave an IC50 ([4]; Homo sapiens, PC-3, 24 h, 24 h treatment, 5–100 μg/mL) greater than 50 µg/mL, an IC50 [5] greater than 100 µg/mL and a viability at 24 h, 5 μg/mL ([6]; 5 μg/mL) of 97.28 ± 0.33%. For the same compound, the viability at 24 h, 10 μg/mL ([6]; 10 μg/mL) was 95.28 ± 0.9%, the viability at 24 h, 20 μg/mL ([6]; 20 μg/mL) was 91.1 ± 1.39% and the viability at 24 h, 30 μg/mL ([6]; 30 μg/mL) was 87.3 ± 1.5%. It also gave a viability at 24 h, 40 μg/mL ([6]; 40 μg/mL) of 82.6 ± 1.36%, a viability at 24 h, 50 μg/mL ([6]; 50 μg/mL) of 76.2 ± 1.78% and a viability at 24 h, 100 μg/mL ([6]; 100 μg/mL) of 67.6 ± 1.48%. For the same compound, the IC50 [7] was greater than 100 µg/mL, the viability at 24 h, 5 μg/mL ([8]; 5 μg/mL) was 97.48 ± 0.79% and the viability at 24 h, 20 μg/mL ([8]; 20 μg/mL) was 96.4 ± 0.83%. The viability at 24 h, 30 μg/mL ([8]; 30 μg/mL) was 94.3 ± 1.45%, the viability at 24 h, 40 μg/mL ([8]; 40 μg/mL) was 93.7 ± 1.11% and the viability at 24 h, 50 μg/mL ([8]; 50 μg/mL) was 92 ± 1.64%. The viability at 24 h, 100 μg/mL ([8]; 100 μg/mL) was 89.5 ± 1.4%, the IC50 [9] was greater than 100 µg/mL and the viability at 24 h, 5 μg/mL ([10]; 5 μg/mL) was 95.76 ± 0.69%. For the same compound, the viability at 24 h, 10 μg/mL ([10]; 10 μg/mL) was 94.55 ± 0.84%, the viability at 24 h, 20 μg/mL ([10]; 20 μg/mL) was 90.05 ± 0.74% and the viability at 24 h, 30 μg/mL ([10]; 30 μg/mL) was 81.7 ± 1.56%. For the same compound, the viability at 24 h, 40 μg/mL ([10]; 40 μg/mL) was 74.8 ± 1.13%, the viability at 24 h, 50 μg/mL ([10]; 50 μg/mL) was 67.2 ± 1.25% and the viability at 24 h, 100 μg/mL ([10]; 100 μg/mL) was 56.9 ± 1.85%. It also gave an IC50 [11] greater than 100 µg/mL, a viability at 24 h, 5 μg/mL ([12]; 5 μg/mL) of 94.7 ± 1.42% and a viability at 24 h, 10 μg/mL ([12]; 10 μg/mL) of 88.4 ± 0.92%. It also gave a viability at 24 h, 20 μg/mL ([12]; 20 μg/mL) of 82 ± 1.69%, a viability at 24 h, 30 μg/mL ([12]; 30 μg/mL) of 74.7 ± 1.19% and a viability at 24 h, 40 μg/mL ([12]; 40 μg/mL) of 65.8 ± 1.25%. It also gave a viability at 24 h, 50 μg/mL ([12]; 50 μg/mL) of 61.1 ± 2.37%, a viability at 24 h, 100 μg/mL ([12]; 100 μg/mL) of 49.6 ± 1.49% and an IC50 [13] greater than 50 µg/mL.
